Measured values as given in US20100092456A1, “METHODS OF TREATMENT” (priority 2006, published 2010).

Experiments:
PIP 5-K = biological target: T1, PIP 5-K (Mus musculus, UniProt P70181); experiment: Localisation of GFP PIP 5-K in HeLa cells by confocal laser scanning microscopy; format: cell-based; conditions: 600 microMolar, away from the plasma membrane
T1 construct: expressed in transfected cells; host or cells: HeLa cells
Description: Panel A: HeLa cell were transiently transfected with expression plasmids encoding for a GFP fusion protein of PIP 5-K. In healthy cells GFP PIP 5-K is located at the plasma membrane. Cells were then treated with 600 microMolar H2O2 and the localisation of the GFP PIP 5-K was monitored on line using confocal laser scanning microscopy.
HeLa cells were transiently transfected with expression plasmids encoding for a GFP fusion protein of PIP 5-K. In healthy cells GFP PIP 5-K is located at the plasma membrane. Cells were then treated with 600 microMolar H2O2 and the localisation of the GFP PIP 5-K was monitored on line using confocal laser scanning microscopy. […] H2O2 regulates the localisation of the enzyme in vivo. (FIG. 12, panel A)

[1] = tested on: PtdIns(4,5)P2 in HeLa cells; experiment: PtdIns(4,5)P2 levels visualised with GFP-PH domain of PLCdelta1 probe in HeLa cells; format: cell-based; conditions: 600 microMolar H2O2, no recovery hours after stimulation
From the text: Changes in intracellular PtdIns(4,5)P2 levels following stimulation with neurokinin A were visualised in real time using a fusion protein of GFP and the PH domain of PLCdelta1 as a probe. GFP PLC delta 1 is a highly specific in vivo probe for PIP2 in cells.
HeLa cells were transiently transfected with an expression plasmid encoding a fusion protein of GFP and the PH domain of PLCdelta1.
HeLa cells were transiently transfected with an expression plasmid encoding a fusion protein of GFP and the pleckstrin homology domain of PLCdelta1. GFP PLC delta1 is a highly specific in vivo probe for PtdIns(4,5)P2 in cells. Results are in FIG. 10.

HeLa cells = experiment: Apoptosis of HeLa cells by nuclear morphology; format: cell-based; conditions: 600 microMolar, 24 hours
Description: HeLa cell were transiently transfected with expression plasmids encoding for the listed proteins. Cell were then treated with 600 microMolar H2O2 for 24 hours. All cells were collected and examined for apoptosis (Example 5).
The inventors have shown that type I PIP kinase protects cells from ROS induced apoptosis. HeLa cells were transiently transfected with expression plasmids encoding for the listed proteins. Cells were then treated with 600 microMolar H2O2 for 24 hours. All cells were collected and examined for apoptosis. Apoptosis was determined by examining nuclear morphology of green cells (GFP Histone) after staining with a nuclear stain. Cells with fragmented nuclei were scored positive for apoptosis. […] Ectopic expression of PIP 5-K protects HeLa cells from apoptosis after H2O2 treatment. Results are in FIG. 11.

[2] = tested on: nuclear PtdIns4P and PtdIns5P in differentiated MEL cells; experiment: Mass assay of nuclear PtdIns4P and PtdIns5P in differentiated MEL cells; format: cell-based, Murine; conditions: NAC 5 mM or BSO 100 μM for 4 hours, H2O2 500 μM for 15 minutes, vs control-treated cells
Description: B) Differentiated MEL cells were treated with NAC (5 mM) or BSO (100 μM), each for 4 hours, or H2O2 (500 μM) for 15 minutes prior to the isolation of intact nuclei. A mass assay was used to determine the levels of PtdIns4P and PtdIns5P. The results are expressed as % of control-treated differentiated MEL cells and are calculated from 3 independent experiments.
MEL, HEK 293 and HT1080 cells were maintained in routine culture using 10% FCS in DMEM. When required, differentiated MEL cells were prepared by the addition of 1.5% DMSO to the culture medium for a period of 4 days. MEL cells were transfected using Effectene (Qiagen), HEK 293 cells with calcium phosphate and HT1080 with LT1 (Mirus corporation). The following plasmids were used: pEGFP, pCDNA3 (both from Clontech), pCDNA3-Flag-MKK6+ and pCDNA3-Flag-MKK6-(from Dr. M. Schmidt, The Netherlands Cancer Institute), pSuper (from Dr. R. Agami, The Netherlands Cancer Institute), pCDNA3-EGFP-IpgD/IpgE, pCDNA3-EGFP-PIP kinase typeIIβ, and RNAi for type II β PIP kinase (termed pSuper-IIβRNAi). The targeting sequence for the latter was […]. Irradiation of the cells with 254 nm UV-C light (0-200 J/m) or gamma rays (0-40 Gy, from a Cesium 137 source) was performed using 6-well or 10 cm plastic petri dishes with a depth of medium covering the cells not exceeding 3-4 mm. Thereafter, the cells were returned to normal culture conditions for 30 minutes before subcellular fractionation was started. To determine long terms effects of UV and gamma irradiation the cells were returned to normal culture conditions for up to 48 hours.
MEL cells were washed, twice in ice cold PBS before their fractionation using a detergent-free hypotonic buffer. This method yields a mixed cytosol and membrane fraction and intact nuclei after separation using a sucrose cushion. MEL cell nuclei were fractionated into nucleoplasm and the CEF using modifications of a previously published method. Briefly, intact MEL cell nuclei were resuspended in ice cold hypotonic buffer (3 mM EDTA, 0.2 mM EGTA and 1 mM DTT pH 7.85, with protease inhibitors) followed by forced passage (12 times) through a 25 gauge needle. After centrifugation (1700 g) the supernatant (the nucleoplasm) was saved. The pellet (CEF) was washed twice before resuspending by sonication in 10 mM TrisHCl, 10% sucrose, 10 mM MgCl2 pH 7.4, with protease inhibitors. The protein content of all fractions was determined using the Bradford reagent (BioRad). PtdIns4P and PtdIns5P were measured using in vitro mass assays employing recombinant type I and type II PIP kinases, respectively. The product PtdIns(4,5)P2 was separated by TLC. The amount of radioactivity found in PtdIns(4,5)P2 was proportional to the amount of PtdInsP isomer in the neomycin affinity-purified lipid extract.
However, no studies have determined a role for nuclear phosphoinositides or defined downstream protein targets mediating phosphoinositide-stress activated pathways. To study changes in nuclear phosphoinositides in response to cellular stress, we used Murine erythroleukaemia (MEL) cells as a model system because preparations of nuclei from these cells have been proven to be of high purity. To visualise changes in phosphoinositides, various independent methods were used. The mass level of both PtdIns4P and PtdIns5P were measured using an assay that relies on the differential in vitro specificities of type I and type II PIP kinases. […] Gamma irradiation (10 Gy) led to a small (approximately 20%) decrease in the PtdIns4P level but no detectable change in the level of PtdIns5P in whole nuclei (FIG. 1a). To determine if nuclear PtdInsPs were regulated by oxidative stress we treated differentiated MEL cells with H2O2, BSO (L-buthionine[S,R]-sulphoximine, a glutamyl-cysteine synthetase inhibitor, which increases intracellular reactive oxygen species (ROS)) or NAC. (N-acetyl-cysteine, which increases cellular glutathione levels and cell' capability to deal with ROS). […]

T1 sequence (P70181 whole entry): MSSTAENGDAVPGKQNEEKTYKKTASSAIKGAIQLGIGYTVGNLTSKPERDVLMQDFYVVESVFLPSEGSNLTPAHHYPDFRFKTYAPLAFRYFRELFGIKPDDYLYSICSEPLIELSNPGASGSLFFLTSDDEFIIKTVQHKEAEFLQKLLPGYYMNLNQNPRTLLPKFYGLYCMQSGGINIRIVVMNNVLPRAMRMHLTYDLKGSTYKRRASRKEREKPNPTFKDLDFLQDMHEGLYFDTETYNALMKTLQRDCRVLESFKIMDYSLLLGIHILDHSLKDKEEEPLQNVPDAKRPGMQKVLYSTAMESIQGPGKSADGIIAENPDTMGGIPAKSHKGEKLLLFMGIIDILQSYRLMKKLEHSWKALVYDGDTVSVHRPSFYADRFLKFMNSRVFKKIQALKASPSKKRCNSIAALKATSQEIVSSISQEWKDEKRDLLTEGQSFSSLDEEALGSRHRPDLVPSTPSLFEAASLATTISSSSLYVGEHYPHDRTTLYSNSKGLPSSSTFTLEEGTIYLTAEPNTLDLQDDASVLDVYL

localisation of GFP PIP 5-K (PIP 5-K): induces translocation
SMILES: OO [H2O2]
PtdIns(4,5)P2 levels (GFP-PH probe at plasma membrane) [1]: sustained depletion | apoptosis (fragmented nuclei) (HeLa cells): induces apoptosis | level of nuclear PtdIns4P [2]: increased | level of nuclear PtdIns5P [2]: increased
